Test system: LbetaT2 cells
Experiment: Intracellular calcium mobilization (Fura2) in LbetaT2 cells
Type: cell-based, murine
Conditions: pre-treatment with 100 nM cetrorelix; data not shown
Description: Figure 5 Effect of treatments on intracellular calcium mobilization. Cells were loaded with Fura 2-AM. At the time of the experiment 100 µM EGTA was added 30 sec before addition of 300 µM of CaCl2 (Ca^2+) to the medium as indicated, and cells were then stimulated with 10 nM of wild type (WT), mutant (R31C) or equimolar combination (10 nM WT +10 nM R31C) or vehicle for 3 min. In the upper panel, representative curves of single cell recording. Each experiment mean was analysed using One-way ANOVA followed by Tukey's Multiple comparison test. In the lower panels, histograms show the means ± SEM (n = 4) of the response to ligands as calcium peak and as area under the curve (AUC). […] Representative of at least three independent experiments, *p<0.05.
LbetaT2 cells were kept in serum free medium overnight and then loaded with 2 µM Fura2-AM for 45 min at 37°C. The experiment was conducted in HEPES buffer (in mM; 116 NaCl, 5.6 KCl, 1.2 MgCl2, 5 NaHCO3, 1 NaH2PO4, 20 HEPES ph 7.4) in presence of extracellular Ca^2+ (EGTA 100 µM + CaCl2 300 µM). Single images of fluorescent emission at 510 nm under excitation at 340 and 380 nm were taken every 5 Sec. Changes in [Ca^2+]i in response to GnRHs were monitored using the Fura2 340/380 fluorescence ratio. Basal ratio was arbitrarily considered as 1. Ca^2+ responses over basal level were given either as maximal rise of [Ca^2+]i or as area under the curve (for 2 min after agonist addition).

## cetrorelix [reference compound]
  calcium responses to WT and R31C after antagonist pre-treatment: abolished responses to both ligands

Reference: publication PMC3723855, “R31C GNRH1 Mutation and Congenital Hypogonadotropic Hypogonadism” (PLoS ONE, 2013)
